Where “and” joins values, the source holds several entries; their conditions need not be identical. Equal entries are not always repeated.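 Five concentrations, 48 hours, 96-well plates. The concentration for 50% growth inhibition is given as GI50. TGI is the concentration that stops growth completely.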
Columns and labels:
Assay in all cases: growth of human tumour cells (NCI), 48 h
[1] = tested on: SW-620 colon
[2] = tested on: A498 renal
[3] = tested on: MDA-MB-231 breast
[4] = tested on: MCF7 breast
[5] = tested on: KM12 colon
[6] = tested on: K-562 leukemia
[7] = tested on: UO-31 renal
[8] = tested on: OVCAR-5 ovarian
[9] = tested on: HOP-92 NSCLC
[10] = tested on: IGROV1 ovarian

Compound | GI50 [1] | TGI [1] | GI50 [2] | TGI [2] | GI50 [3] | TGI [3] | GI50 [4] | TGI [4] | GI50 [5] | TGI [5] | GI50 [6] | TGI [6] | GI50 [7] | TGI [7] | GI50 [8] | TGI [8] | GI50 [9] | TGI [9] | GI50 [10] | TGI [10]
O=C([CH-]C(=O)c1ccccc1)c1ccccc1.[CH2-]C.[CH2-]C.[Tl+3] | 26.5 µM | > 100 µM | 48.9 µM | > 100 µM | > 100 µM | > 100 µM | 7.73 µM | > 100 µM | 49.6 µM | > 100 µM | 9.92 µM | 59.6 µM | 22.3 µM | > 77.2 µM | 40.5 µM | > 100 µM | 21.6 µM | > 72.8 µM | 24.4 µM | > 100 µM
CN(Cc1cnc2nc(N)nc(N)c2n1)c1c(Cl)cc(C(=O)NC(CCC(=O)O)C(=O)O)cc1Br (stereo not drawn) | < 0.01 µM | > 100 µM | 0.0302 µM | > 100 µM | – | > 100 µM | < 0.01 µM | > 100 µM | < 0.01 µM | > 100 µM | < 0.01 µM | > 100 µM | < 0.01 µM | – | 0.127 µM | > 100 µM | > 100 µM | > 100 µM | < 0.01 µM | 18.2 µM
c1ccc2[nH]c(-c3cscn3)nc2c1 | – | > 100 µM | – | > 100 µM | – | > 100 µM | – | > 100 µM | – | > 100 µM | – | > 100 µM | > 100 µM and 25.8 µM | > 100 µM | – | > 100 µM | – | > 100 µM | – | > 100 µM
COc1cc(C(=O)Nc2ccc(-c3nc4ccccc4[nH]3)cc2)cc(OC)c1OC | 16.9 µM | 42.8 µM | 7.07 µM | 25.4 µM | 9.38 µM | 24 µM | 11.2 µM | 30.6 µM | 9.22 µM | 32.5 µM | 7.39 µM | 27.4 µM | 3.92 µM | 16.1 µM | 11.7 µM | 26.3 µM | 6.41 µM | 24.2 µM | 14.1 µM | 31.5 µM
CC(C)OC(=O)c1cc(NC(=S)OC(C)C)ccc1Cl | – | > 64.6 µM | – | > 51.1 µM | – | 30.4 µM | – | > 53 µM | – | 44.3 µM | – | > 100 µM | – | 54.3 µM | – | > 63.1 µM | – | 46.4 µM | – | > 56.2 µM
COc1ccc(-c2nn(-c3cccc(Cl)c3)cc2-c2c(C#N)c(=O)n3[nH]c(-c4ccc(C)o4)nc3c2C#N)cc1 | 9.21 µM | > 50 µM | 1.55 µM | 10.7 µM | 4.7 µM | 36.9 µM | 1.75 µM | > 50 µM | 3.54 µM | > 50 µM | 4.09 µM | > 50 µM | 1.8 µM | 38.9 µM | 13.6 µM | > 50 µM | 0.463 µM | 3.44 µM | 2.6 µM | 18.5 µM
COc1cc(C(=O)/C=C/c2c(C)n([O-])c3ccc(Cl)cc3[n+]2=O)cc(OC)c1OC | 2.57 µM | 11.7 µM | 0.208 µM | 41 µM | 12.9 µM | > 100 µM | 3.37 µM | > 100 µM | 23.2 µM | > 100 µM | 3.09 µM | > 100 µM | 1.82 µM | 18.1 µM | 27 µM | > 100 µM | 4.47 µM | > 100 µM | 9.07 µM | > 100 µM
COc1ccc(-c2nc3sccn3c2/C=C/C(=O)c2cc(OC)c(OC)c(OC)c2)cc1 | 3.01 µM | > 100 µM | 2.52 µM | 6.41 µM | 3.28 µM | > 100 µM | 1.85 µM | > 100 µM | 2.56 µM | 7.75 µM | 2.43 µM | > 23.9 µM | 2.12 µM | > 25.5 µM | 3.68 µM | > 23.9 µM | 0.4 µM | 4.59 µM | 1.24 µM | –
Clc1cc(Cl)cc(Nc2ccc3c(OCCCN4CCOCC4)cccc3n2)c1 | 1.86 µM | 3.69 µM | 2.39 µM | 12.1 µM | 1.8 µM | 3.94 µM | 1.74 µM | 3.48 µM | 2 µM | 4.13 µM | 2.21 µM | 5.71 µM | 1.51 µM | 2.94 µM | 1.83 µM | 4.37 µM | 2.03 µM | 6.94 µM | 3.9 µM | 17.6 µM
O=C(/C=C/c1ccccn1)c1ccccc1 | 2.02 µM | 4.1 µM | 14.9 µM | 28.3 µM | 9.92 µM | 23.8 µM | 2.07 µM | 8.46 µM | 4.13 µM | 15.5 µM | 2.53 µM | > 100 µM | 12.2 µM | 29.9 µM | 6.52 µM | 24.1 µM | 10.4 µM | 23.6 µM | 3.84 µM | 85.3 µM
c1ccc(-c2nc3ccccc3[nH]2)c(OCCCCCOc2ccccc2-c2nc3ccccc3[nH]2)c1 | 3.18 µM | 12.9 µM | 12.1 µM | 25.5 µM | 12.2 µM | 29.3 µM | 2.3 µM | 7.51 µM | 15.8 µM | 72.4 µM | 4.35 µM | > 100 µM | 11 µM | 36 µM | 20.2 µM | 62.6 µM | 2.55 µM | 14.7 µM | 18.1 µM | 47.1 µM
COc1cc2c(cc1OC)C(Sc1ccc(Cl)cc1)c1c(nc(N)c(C#N)c1N)O2 (stereo not drawn) | 1.37 µM | 3.14 µM | 1.73 µM | 5.01 µM | 1.37 µM | 2.76 µM | 0.564 µM | 2.91 µM | 1.75 µM | 3.35 µM | 0.791 µM | 8.28 µM | 1.21 µM | 2.46 µM | 1.89 µM | 3.88 µM | 1.51 µM | 3.19 µM | 1.07 µM | 2.88 µM
COc1ccc([C@H]2c3[nH]c4ccccc4c3C[C@H]3C(=O)N(CCCCCCC(=O)NO)CC(=O)N23)cc1 | 1.03 µM | > 33.3 µM | 2.91 µM | 9.55 µM | 2.27 µM | > 33.3 µM | 1.78 µM | > 33.3 µM | 2.73 µM | > 33.3 µM | 0.895 µM | > 33.3 µM | 1.47 µM | > 33.3 µM | 1.49 µM | > 33.3 µM | 1.38 µM | 24.2 µM | 2.32 µM | > 33.3 µM

— PubChem BioAssay (NCI)
